Reference: ChEMBL document CHEMBL5291721, “A preclinical secondary pharmacology resource illuminates target-adverse drug reaction associations of marketed drugs” (Nat Commun, 2023)

Key:
[1] = molecular target: T1, Adenosine receptor A3 (Homo sapiens, UniProt P0DMS8)
T1 sequence (P0DMS8 whole entry): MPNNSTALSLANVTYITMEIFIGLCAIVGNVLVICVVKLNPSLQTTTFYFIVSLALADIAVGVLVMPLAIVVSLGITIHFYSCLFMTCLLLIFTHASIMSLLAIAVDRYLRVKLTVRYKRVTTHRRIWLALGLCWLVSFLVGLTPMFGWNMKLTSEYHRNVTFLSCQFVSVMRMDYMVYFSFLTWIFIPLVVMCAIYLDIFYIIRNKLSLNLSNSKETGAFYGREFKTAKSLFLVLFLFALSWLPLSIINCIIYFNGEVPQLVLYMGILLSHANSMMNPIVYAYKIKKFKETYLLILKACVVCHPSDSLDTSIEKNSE

[2] = molecular target: T2, Alpha-2C adrenergic receptor (Homo sapiens, UniProt P18825); type: functional
T2 sequence (P18825 whole entry): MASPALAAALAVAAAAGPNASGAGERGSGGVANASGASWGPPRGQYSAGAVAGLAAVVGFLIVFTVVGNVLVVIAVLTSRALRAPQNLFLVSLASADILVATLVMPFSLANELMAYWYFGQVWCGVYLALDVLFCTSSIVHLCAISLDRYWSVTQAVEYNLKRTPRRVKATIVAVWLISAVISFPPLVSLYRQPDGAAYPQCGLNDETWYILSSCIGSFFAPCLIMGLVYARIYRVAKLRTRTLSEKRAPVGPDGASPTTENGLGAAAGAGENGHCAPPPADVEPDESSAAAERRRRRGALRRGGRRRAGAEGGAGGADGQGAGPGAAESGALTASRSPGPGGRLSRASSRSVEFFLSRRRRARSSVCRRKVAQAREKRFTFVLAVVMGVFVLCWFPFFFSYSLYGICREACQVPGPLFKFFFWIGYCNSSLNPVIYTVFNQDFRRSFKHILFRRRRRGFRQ

[3] = molecular target: Vasopressin V1a receptor (Homo sapiens, UniProt P37288)
[4] = molecular target: T3, Muscarinic acetylcholine receptor M2 (Homo sapiens, UniProt P08172); type: functional, cell-based
T3 sequence (P08172 whole entry): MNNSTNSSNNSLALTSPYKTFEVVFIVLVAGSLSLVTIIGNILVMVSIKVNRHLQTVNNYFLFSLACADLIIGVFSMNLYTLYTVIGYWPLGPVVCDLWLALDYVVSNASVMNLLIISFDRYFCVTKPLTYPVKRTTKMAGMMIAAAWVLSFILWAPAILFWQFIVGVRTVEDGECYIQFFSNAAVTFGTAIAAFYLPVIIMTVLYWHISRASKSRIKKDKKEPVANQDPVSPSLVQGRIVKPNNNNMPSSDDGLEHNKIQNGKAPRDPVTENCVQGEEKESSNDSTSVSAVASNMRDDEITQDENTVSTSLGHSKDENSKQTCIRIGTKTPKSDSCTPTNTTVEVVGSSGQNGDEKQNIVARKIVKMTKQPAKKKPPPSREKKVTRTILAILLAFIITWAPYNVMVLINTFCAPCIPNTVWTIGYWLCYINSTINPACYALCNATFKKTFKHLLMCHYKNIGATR

[5] = molecular target: Gamma-aminobutyric acid receptor subunit alpha-1 (Rattus norvegicus, UniProt P62813)
[6] = molecular target: Glutamate receptor ionotropic, NMDA 1 (Rattus norvegicus, UniProt P35439)
[7] = molecular target: Melanocortin receptor 3 (Homo sapiens, UniProt P41968)
[8] = molecular target: T4, Neuropeptide Y receptor type 1 (Homo sapiens, UniProt P25929)
T4 sequence (P25929 whole entry): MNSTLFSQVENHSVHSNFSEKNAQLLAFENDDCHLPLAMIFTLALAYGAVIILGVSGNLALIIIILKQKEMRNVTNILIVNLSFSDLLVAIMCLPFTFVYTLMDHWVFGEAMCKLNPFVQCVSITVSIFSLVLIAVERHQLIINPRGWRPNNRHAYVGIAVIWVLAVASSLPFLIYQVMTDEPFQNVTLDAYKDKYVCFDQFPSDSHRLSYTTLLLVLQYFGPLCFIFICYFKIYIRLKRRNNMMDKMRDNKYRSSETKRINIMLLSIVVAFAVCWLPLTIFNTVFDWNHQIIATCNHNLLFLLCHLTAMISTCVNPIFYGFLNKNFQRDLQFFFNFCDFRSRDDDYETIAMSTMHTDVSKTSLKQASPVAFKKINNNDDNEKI

[9] = molecular target: Delta-type opioid receptor (Homo sapiens, UniProt P41143)
[10] = molecular target: 3',5'-cyclic-AMP phosphodiesterase 4D (Homo sapiens, UniProt Q08499); type: functional
[11] = molecular target: T5, Prostaglandin G/H synthase 1 (Rattus norvegicus, UniProt Q63921); type: functional
T5 sequence (Q63921 whole entry): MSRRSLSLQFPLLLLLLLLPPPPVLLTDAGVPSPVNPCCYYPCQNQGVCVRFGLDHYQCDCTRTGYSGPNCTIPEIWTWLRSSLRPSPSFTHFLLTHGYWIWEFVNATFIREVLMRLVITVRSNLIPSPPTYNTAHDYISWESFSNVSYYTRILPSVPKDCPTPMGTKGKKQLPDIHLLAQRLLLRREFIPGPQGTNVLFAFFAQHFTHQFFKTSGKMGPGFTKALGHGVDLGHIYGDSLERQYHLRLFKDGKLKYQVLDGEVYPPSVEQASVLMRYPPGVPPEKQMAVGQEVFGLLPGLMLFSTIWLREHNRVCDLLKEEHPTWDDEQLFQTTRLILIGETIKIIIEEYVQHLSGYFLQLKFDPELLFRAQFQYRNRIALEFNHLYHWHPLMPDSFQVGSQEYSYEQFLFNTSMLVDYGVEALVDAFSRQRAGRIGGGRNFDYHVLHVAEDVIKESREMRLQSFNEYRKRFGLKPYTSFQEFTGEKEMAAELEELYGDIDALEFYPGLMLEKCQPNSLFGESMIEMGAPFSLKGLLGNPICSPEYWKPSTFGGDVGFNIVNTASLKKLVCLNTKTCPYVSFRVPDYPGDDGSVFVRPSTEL
Also: assay procedure not described here.

Sequence of 3',5'-cyclic-AMP phosphodiesterase 4D (Q08499 whole entry): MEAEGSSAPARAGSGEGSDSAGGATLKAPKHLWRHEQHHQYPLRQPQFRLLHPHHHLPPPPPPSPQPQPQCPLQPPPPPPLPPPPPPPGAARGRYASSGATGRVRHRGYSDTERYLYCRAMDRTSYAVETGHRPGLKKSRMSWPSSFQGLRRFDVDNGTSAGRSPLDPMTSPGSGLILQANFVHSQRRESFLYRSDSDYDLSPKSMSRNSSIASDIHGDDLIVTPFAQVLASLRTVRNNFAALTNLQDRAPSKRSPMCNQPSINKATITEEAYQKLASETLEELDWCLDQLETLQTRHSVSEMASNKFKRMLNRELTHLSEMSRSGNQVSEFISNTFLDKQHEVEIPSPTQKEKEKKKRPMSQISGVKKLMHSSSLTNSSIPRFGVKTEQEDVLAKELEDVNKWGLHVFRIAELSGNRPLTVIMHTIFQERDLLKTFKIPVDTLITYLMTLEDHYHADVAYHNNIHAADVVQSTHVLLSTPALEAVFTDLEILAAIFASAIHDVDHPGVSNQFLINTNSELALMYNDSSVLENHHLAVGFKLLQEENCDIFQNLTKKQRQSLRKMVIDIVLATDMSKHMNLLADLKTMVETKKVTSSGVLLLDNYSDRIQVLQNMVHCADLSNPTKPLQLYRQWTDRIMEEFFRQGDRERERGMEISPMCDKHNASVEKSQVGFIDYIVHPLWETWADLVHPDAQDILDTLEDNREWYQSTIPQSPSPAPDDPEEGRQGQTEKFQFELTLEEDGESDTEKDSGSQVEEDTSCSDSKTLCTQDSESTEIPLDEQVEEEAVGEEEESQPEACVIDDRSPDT
Sequence of Gamma-aminobutyric acid receptor subunit alpha-1 (P62813 whole entry): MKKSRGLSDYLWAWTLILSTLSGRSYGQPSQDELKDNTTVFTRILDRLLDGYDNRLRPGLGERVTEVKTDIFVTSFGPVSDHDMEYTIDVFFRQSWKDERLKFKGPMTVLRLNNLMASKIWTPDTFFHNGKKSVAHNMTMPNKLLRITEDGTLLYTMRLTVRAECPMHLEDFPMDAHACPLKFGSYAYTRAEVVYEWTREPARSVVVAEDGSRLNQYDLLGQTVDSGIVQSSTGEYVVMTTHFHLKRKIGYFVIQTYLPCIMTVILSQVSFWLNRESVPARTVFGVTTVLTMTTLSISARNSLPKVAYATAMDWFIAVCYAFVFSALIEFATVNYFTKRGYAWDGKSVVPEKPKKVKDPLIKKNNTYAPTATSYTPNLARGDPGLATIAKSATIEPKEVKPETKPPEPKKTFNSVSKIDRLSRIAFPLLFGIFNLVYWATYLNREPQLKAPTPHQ
Sequence of Vasopressin V1a receptor (P37288 whole entry): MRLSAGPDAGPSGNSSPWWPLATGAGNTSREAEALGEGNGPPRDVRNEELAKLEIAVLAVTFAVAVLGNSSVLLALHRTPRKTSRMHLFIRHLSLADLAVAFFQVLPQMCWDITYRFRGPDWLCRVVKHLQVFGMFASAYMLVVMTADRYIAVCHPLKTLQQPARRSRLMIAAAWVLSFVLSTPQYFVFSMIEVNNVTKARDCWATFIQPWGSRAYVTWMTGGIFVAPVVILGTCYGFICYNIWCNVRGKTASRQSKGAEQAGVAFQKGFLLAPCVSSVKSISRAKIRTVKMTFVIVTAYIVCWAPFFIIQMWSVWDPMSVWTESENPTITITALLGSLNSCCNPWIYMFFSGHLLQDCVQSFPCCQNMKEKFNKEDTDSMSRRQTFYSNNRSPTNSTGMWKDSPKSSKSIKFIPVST
Sequence of Melanocortin receptor 3 (P41968 whole entry): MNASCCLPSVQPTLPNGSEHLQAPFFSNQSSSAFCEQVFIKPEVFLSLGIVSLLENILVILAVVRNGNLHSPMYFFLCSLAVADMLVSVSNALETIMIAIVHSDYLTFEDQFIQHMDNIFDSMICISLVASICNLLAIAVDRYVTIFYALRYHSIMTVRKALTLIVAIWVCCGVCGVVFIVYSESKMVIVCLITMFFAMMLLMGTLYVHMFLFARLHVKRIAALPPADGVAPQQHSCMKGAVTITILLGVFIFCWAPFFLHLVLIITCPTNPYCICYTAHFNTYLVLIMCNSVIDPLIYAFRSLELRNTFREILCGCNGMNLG
Sequence of Delta-type opioid receptor (P41143 whole entry): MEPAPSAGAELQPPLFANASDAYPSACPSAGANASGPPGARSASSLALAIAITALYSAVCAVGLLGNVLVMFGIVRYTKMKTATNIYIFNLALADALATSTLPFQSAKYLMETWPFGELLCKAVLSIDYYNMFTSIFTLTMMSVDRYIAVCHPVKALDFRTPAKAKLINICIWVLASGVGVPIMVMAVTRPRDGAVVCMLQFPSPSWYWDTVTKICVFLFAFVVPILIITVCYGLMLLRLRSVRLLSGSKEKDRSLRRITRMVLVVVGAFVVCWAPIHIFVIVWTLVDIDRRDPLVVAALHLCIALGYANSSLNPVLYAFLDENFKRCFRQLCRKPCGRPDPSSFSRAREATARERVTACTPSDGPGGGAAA

Compound | AC50 [1] [µM] | AC50 [2] [µM] | AC50 [3] [µM] | AC50 [4] [µM] | AC50 [5] [µM] | AC50 [6] [µM] | AC50 [7] [µM] | AC50 [8] [µM] | AC50 [9] [µM] | AC50 [10] [µM] | AC50 [11] [µM]
CN1CCC[C@@H]1Cc1c[nH]c2ccc(CCS(=O)(=O)c3ccccc3)cc12 | > 30 |  |  |  |  |  |  |  |  |  | 
COc1nccnc1NS(=O)(=O)c1ccc(N)cc1 | > 30 |  |  |  |  |  |  |  |  |  | 
NC(=O)c1nc(F)c[nH]c1=O | > 30 |  |  |  |  |  |  |  |  |  | 
CN(C)CCCN1C(=O)c2cc([N+](=O)[O-])ccc2Oc2ccccc21 | > 30 |  |  |  |  |  |  |  |  |  | 
O=S(=O)(O)CCS [2-MERCAPTOETHANESULFONIC ACID] | > 30 |  |  |  |  |  |  |  |  |  | 
CC1(C)S[C@@H]2[C@H](NC(=O)[C@H](N)c3ccc(O)cc3)C(=O)N2[C@H]1C(=O)O [AMOXICILLIN] |  | > 30 | > 30 | > 30 | > 30 | > 30 | > 30 | > 30 | > 30 | > 30 | > 30
O=C1CN2Cc3c(ccc(Cl)c3Cl)N=C2N1 [ANAGRELIDE] |  | > 10 | > 30 | > 10 | > 10 | > 10 | > 30 | > 30 | > 30 | > 30 | > 30
O=C(O)COc1nn(Cc2ccccc2)c2ccccc12 [BENDAZAC] | > 30 |  |  |  |  |  |  |  |  |  | 
COC(=O)[C@H](c1ccccc1Cl)N1CCc2sccc2C1 [CLOPIDOGREL] |  | > 30 | > 30 | 27 | > 30 | > 30 | > 30 | > 30 | > 30 | > 30 | > 30
CN1C[C@H](C(=O)N[C@]2(C)O[C@@]3(O)[C@@H]4CCCN4C(=O)[C@H](Cc4ccccc4)N3C2=O)C[C@@H]2c3cccc4[nH]cc(c34)C[C@H]21 [DIHYDROERGOTAMINE] |  |  | > 30 | > 10 | > 10 | > 10 | > 30 | > 30 | > 30 | 6.7 | > 30
Cc1cnc(NC(=O)C2=C(O)c3ccccc3S(=O)(=O)N2C)s1 [MELOXICAM] |  | > 10 | > 10 | > 10 | > 10 | > 10 | > 30 | > 30 | > 10 | > 10 | > 30
CC[C@@H](CO)NC(=O)[C@@H]1C=C2c3cccc4[nH]cc(c34)C[C@H]2N(C)C1 [METHYLERGONOVINE] |  | 1.7 | > 30 | > 30 | > 30 | > 30 | > 30 | > 30 | > 30 | > 30 | > 30
CN(C)c1cc(CNCC(C)(C)C)c(O)c2c1C[C@H]1C[C@H]3[C@H](N(C)C)C(O)=C(C(N)=O)C(=O)[C@@]3(O)C(O)=C1C2=O [OMADACYCLINE] |  | > 30 | > 30 | 24.3 | > 30 | > 30 | > 30 | > 30 | 27 | > 30 | 0.645
COc1ccnc(C[S+]([O-])c2nc3ccc(OC(F)F)cc3[nH]2)c1OC (stereo not given) [PANTOPRAZOLE] |  | > 10 | > 10 | > 10 | > 10 | > 10 | > 30 | > 30 | > 30 | > 30 | > 30
O=C1NC(=O)C(c2ccccc2)(c2ccccc2)N1 [PHENYTOIN] |  | > 30 | > 30 | > 30 | > 10 | > 10 | > 30 | > 30 | > 30 | > 30 | > 30
CC(C)C[C@H](CN)CC(=O)O [PREGABALIN] |  | > 30 | > 30 | > 30 | > 30 | > 30 | > 30 | > 30 | > 30 | > 30 | > 30
CCCN(CCC)CCc1cccc2c1CC(=O)N2 [ROPINIROLE] |  | > 30 | > 30 | 23 | > 10 | > 10 | > 30 | > 30 | > 30 | > 30 | > 30
CC(C)N(CCCCOCC(=O)NS(C)(=O)=O)c1cnc(-c2ccccc2)c(-c2ccccc2)n1 [SELEXIPAG] |  | > 30 | > 30 | > 30 | > 30 | > 30 | > 30 | > 30 | 25 | 4.81 | > 30
CC(=O)S[C@@H]1CC2=CC(=O)CC[C@]2(C)[C@H]2CC[C@@]3(C)[C@@H](CC[C@@]34CCC(=O)O4)[C@H]12 [SPIRONOLACTONE] |  | > 30 | > 30 | 26 | > 10 | > 10 | > 30 | > 30 | > 30 | > 30 | > 30
CCCCNc1ccc(C(=O)OCCN(C)C)cc1 [TETRACAINE] |  | > 10 | > 10 | > 10 | > 10 | > 10 | > 30 | > 30 | > 10 | > 30 | > 30
CC1(C)O[C@@H]2[C@@H](CO[C@@]3(COS(N)(=O)=O)OC(C)(C)O[C@@H]23)O1 [TOPIRAMATE] |  | > 10 | > 10 | > 10 | > 10 | > 10 | > 30 | > 30 | > 10 | > 30 | > 30
Cc1cc(CC(=O)O)n(C)c1C(=O)c1ccc(Cl)cc1 [ZOMEPIRAC] |  | > 30 | > 30 | > 30 | > 30 | > 30 | > 30 | > 30 | > 30 | > 30 | 16
